Experimental data as given in patent US7767646B2, “Methods of screening for compounds that modulate TAFIa activity, compounds, and methods of using the compounds” (American Diagnostica, Inc., priority 2002, dated 2010).
pIC50: −log10 of the molar value. Entries after “also recorded” stand apart in the source; their conditions may differ. Read-outs that look alike come from different tables or passages of the source.

Columns and labels:
Assay type in all cases: biochemical
[1] = molecular target: T1, TAFIa (Homo sapiens, UniProt Q96IY4); assay: ActiScreen TAFI HTS assay (TAFIa carboxypeptidase, hippuryl-L-lysine/LOX/HRP); design: made in house; host or cells: native human TAFI (not recombinant)
T1 sequence (Q96IY4 115-423): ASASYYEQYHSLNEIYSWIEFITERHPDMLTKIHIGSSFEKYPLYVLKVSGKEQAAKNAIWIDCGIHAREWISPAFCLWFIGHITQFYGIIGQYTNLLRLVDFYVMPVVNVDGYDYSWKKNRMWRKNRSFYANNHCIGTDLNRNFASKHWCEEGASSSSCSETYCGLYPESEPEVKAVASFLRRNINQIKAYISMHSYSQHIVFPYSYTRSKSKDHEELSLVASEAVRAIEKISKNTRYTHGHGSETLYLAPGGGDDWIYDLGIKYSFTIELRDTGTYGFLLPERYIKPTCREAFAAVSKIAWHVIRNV
Experimental: The activity of the chemical compounds was assessed in the ActiScreen® TAFI HTS assay, the principle of which is shown below.
The assay is run by mixing TAFIa and test compound in microtiter plate wells. “TAFI developer” is then added to start the reaction which is run at room temperature. The TAFI developer is formulated with hippuryl-L-lysine, lysine oxidase, horseradish peroxidase and ortho-phenylene-diamine. Hippuryl-L-lysine is converted by TAFIa to hippuric acid and L-lysine. Lysine-Oxidase (LOX) converts the lysine to 6-amino-2-oxo-hexanoic acid and hydrogen peroxide. The hydrogen peroxide is used along with ortho-phenylene-diamine […] as substrate for horseradish peroxidase. The reaction produces a yellow color that was monitored for Vmax in a spectrophotometer (SpectroMax 190, Molecular Devices, Sunnyvale, Calif.) in the kinetic mode at 450 nm.
The assay can also be run as an endpoint reaction in which the enzymatic reaction is stopped at a selected point in time with 0.5 M sulphuric acid. The resulting color is read at 490 nm. A TAFI inhibitor will block the first reaction in the cascade in which TAFIa converts hippuryl-L-lysine to hippuric acid and lysine, which finally results in a decrease in Vmax or OD 490 nm relative to control reaction without addition of test compound. The assay has been designed to be run in final concentrations of DMSO of up to 20%. A known inhibitor of TAFIa carboxypeptidase activity, potato tuber carboxypeptidase inhibitor (PTCI), is used as a positive control.
Positive hits were selected based upon the ability of compounds to inhibit carboxypeptidase activity of TAFIa, as measured in the ActiScreen assay. The major criterion for selection of “hits” was based on their potency, as determined by the concentration of compound that inhibits the activity of TAFIa in the Actiscreen TAFI assay by 50% (“IC50”).

[2] = molecular target: T2, TAFI (Homo sapiens, UniProt Q96IY4); assay: TAFI activation by thrombin/thrombomodulin, SDS-PAGE; conditions: aliquots after 20 minutes, SDS-PAGE (FIG. 4)
T2 construct: purchased Hematological Associates (Essex Junction, Vt.)
T2 sequence (Q96IY4 23-423 limits assumed): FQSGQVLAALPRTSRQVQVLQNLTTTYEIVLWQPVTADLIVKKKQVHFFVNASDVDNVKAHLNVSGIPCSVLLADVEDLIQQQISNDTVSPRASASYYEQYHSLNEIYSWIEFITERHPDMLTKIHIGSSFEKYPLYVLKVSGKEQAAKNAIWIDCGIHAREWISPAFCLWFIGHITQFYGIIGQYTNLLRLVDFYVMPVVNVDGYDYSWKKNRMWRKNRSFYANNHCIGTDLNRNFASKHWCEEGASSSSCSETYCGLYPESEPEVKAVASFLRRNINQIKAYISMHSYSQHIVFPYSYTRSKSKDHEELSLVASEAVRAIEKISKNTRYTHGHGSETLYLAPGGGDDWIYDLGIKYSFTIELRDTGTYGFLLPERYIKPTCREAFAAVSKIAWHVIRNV
Experimental: After 20 minutes, aliquots were removed and analyzed by SDS-PAGE. Lane 1. Acetylsalicylic acid; 2. Salicylic acid; 3. 4-hydroxybenzoic acid; 4. 2-hydroxybenzoic acid (salicyluric acid); 5. Ibuprofen; 6. Acetominophen; 7 Control with no addition; 8. TAFI.
Not only, then, do SA and SU inhibit enzyme activity, they also retard the generation of TAFIa. Without being bound by any theory, this provides a dual mechanism by which fibrinolysis is enhanced during high dose aspirin therapy. The proposed pathways by which aspirin and its major metabolites SA and SU enhance fibrinolysis through inhibition of TAFI is presented in FIG. 5. […] Undas et al., 2001, Blood 98:2423-31.

[3] = molecular target: T1, TAFIa; assay: TAFIa carboxypeptidase activity, ActiFLUOR TAFIa fluorescence-based assay; design: purchased American Diagnostica Inc. (Greenwich, Conn.) 3874TAFIa; conditions: for effect on TAFIa carboxypeptidase activity (residual TAFIa activity): incubation 1 hour at room temperature, various concentrations
Experimental: Residual TAFIa activity was measured using ActiFLUOR TAFIa.
Residual TAFIa activity was measured using ActiFLUOR TAFIa. […] About 60% TAFIa activity is lost at 25 mM SA.
Materials. TAFI was purchased from Hematological Associates (Essex Junction, Vt.) and TAFIa (3874TAFIa) was from American Diagnostica Inc. (Greenwich, Conn.). Carboxypeptidase activity of TAFIa was determined using ACTIFLUOR™ TAFI (#874FX) a fluorescence-based assay from American Diagnostica (Greenwich, Conn.). ASA, SA and SU were obtained from Sigma Chemical Co. (St. Louis, Mo.).
Results. The present inventors have made the surprising discovery that ASA, SA and SU may shift the hemostatic balance toward a profibrinolytic state by inhibition of TAFIa, the major regulator of fibrinolysis. TAFIa was incubated with various concentrations of ASA, SA and SU for one hour, at room temperature. Residual TAFIa activity was measured using ActiFLUOR TAFIa. […] Catella-Lawson and coworkers recently reported that ibuprofen, taken prior to aspirin, blocks the irreversible inhibition of COX-1 by aspirin and abrogates the anti-platelet activity of aspirin. Catella-Lawson, F. et al., 2001, N. Engl. J. Med. 345(25):1809-17. Since ibuprofen has little effect on TAFI, it was reasonable to conclude that ibuprofen taken prior to aspirin would not block the profibrinolytic activity of aspirin caused by TAFI inhibition.

[4] = molecular target: T1, TAFIa; assay: TAFIa inhibition with Actichrome 874 TAFI Developer (Vmax); design: purchased American Diagnostica Inc. (Greenwich, Conn.) 3874TAFIa; conditions: different concentrations, Vmax (FIG. 6)
Experimental: Different concentrations of gentisic acid (GA) were incubated with TAFIa and Actichrome 874 TAFI Developer. TAFI activity (Vmax) was determined.

[5] = molecular target: T3, Carboxypeptidase N(CPN) (Homo sapiens, UniProt P15169); assay: Specificity against Carboxypeptidase N in pooled normal human plasma; conditions: PNP (1:10), serially diluted compound
T3 construct: pooled normal human plasma (PNP) was used as the source of CPN; from tissue; host or cells: pooled normal human plasma (PNP), diluted 1:10
T3 sequence (P15169 21-458): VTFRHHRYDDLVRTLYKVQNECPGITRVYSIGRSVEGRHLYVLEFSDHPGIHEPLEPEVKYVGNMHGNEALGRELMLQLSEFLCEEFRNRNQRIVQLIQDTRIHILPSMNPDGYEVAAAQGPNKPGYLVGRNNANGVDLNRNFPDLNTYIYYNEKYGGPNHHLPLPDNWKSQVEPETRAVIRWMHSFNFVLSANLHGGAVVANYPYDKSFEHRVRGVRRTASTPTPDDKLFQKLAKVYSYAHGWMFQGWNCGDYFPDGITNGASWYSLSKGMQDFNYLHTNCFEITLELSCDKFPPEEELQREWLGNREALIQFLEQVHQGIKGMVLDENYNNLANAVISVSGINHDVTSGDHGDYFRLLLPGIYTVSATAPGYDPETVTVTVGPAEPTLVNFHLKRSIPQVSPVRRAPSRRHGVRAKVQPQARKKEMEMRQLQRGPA
T3 sequence (P22792 22-545 partner): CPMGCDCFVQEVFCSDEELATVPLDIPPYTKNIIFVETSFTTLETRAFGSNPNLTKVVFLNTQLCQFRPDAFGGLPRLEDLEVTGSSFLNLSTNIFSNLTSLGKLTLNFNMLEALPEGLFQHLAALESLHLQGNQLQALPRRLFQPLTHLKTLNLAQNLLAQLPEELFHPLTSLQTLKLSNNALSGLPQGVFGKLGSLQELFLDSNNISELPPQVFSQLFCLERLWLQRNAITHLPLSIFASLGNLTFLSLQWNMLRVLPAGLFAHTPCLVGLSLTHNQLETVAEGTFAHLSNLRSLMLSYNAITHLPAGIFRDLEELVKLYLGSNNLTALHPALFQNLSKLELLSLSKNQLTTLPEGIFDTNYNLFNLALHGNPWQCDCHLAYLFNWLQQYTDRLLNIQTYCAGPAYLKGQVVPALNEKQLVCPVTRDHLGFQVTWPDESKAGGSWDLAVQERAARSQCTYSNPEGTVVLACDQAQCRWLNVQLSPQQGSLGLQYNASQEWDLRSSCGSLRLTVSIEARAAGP
Experimental: L278R was also tested for specificity against Carboxypeptidase N(CPN). CPN is the constituitively active carboxypeptidase B-like enzyme in plasma. In this study, pooled normal human plasma (PNP) was used as the source of CPN. The specificity studies were performed by adding PNP (1:10), ActiScreen developer and serially diluted test compound into microtiter wells. Inhibition of color development was an indication of inhibitory activity towards CPN.

[6] = test system: LOX/HRP; assay: Dereplication assay: reaction of LOX/HRP with lysine; conditions: concentrations 5-10 times greater than IC50 for TAFI
Experimental: Positive hits identified with the ActiScreen TAFI assay were dereplicated to ensure that the inhibition of color development is due to blocking of the first reaction of the linked enzyme system catalyzed by TAFIa and not to inhibition of LOX or HRP.
Compounds L278R and LT32 were tested in the dereplication assay, described above.

O=C(N[C@H](CO)Cc1ccccc1)c1cc(O)ccc1O [JV59, N-[(S)-1-hydroxy-3-phenyl-2-propyl]-2,5-dihdroxybenzamide]
pIC50 [1]: 4.36

CC(=O)Oc1ccccc1C(=O)O [ASA, acetylsalicylic acid]
effect on activation of TAFI to TAFIa by thrombin/thrombomodulin [2]: did not appear to have a significantly effect | concentration at which significant inhibition of TAFI activity occurs ([3]; incubation 1 hour at room temperature (FIG. 1)): ~600 µg/mL | effect on TAFIa carboxypeptidase activity (residual TAFIa activity) [3]: directly inhibited; also recorded: inhibited in a dose-dependent manner

O=C(O)c1cc(O)ccc1O [gentisic acid]
type of inhibition of TAFIa [4]: competitive inhibition

NCCCNC(=O)OCCNC(=O)c1ccccc1O [L278R, 2-(2-hydroxybenzoylamino)ethyl N-(3-aminopropyl)carbamate]
inhibition of CPN [5]: did not inhibit CPN | effect on reaction rate (Vmax) of LOX/HRP with lysine [6]: Neither of the compounds had a significant effect | pIC50 ([1]; TAFIa preincubated with compound 1 hour at 4° C. prior to assay): 3.05 | type of inhibition of TAFIa ([1]; no preincubation): competitive type inhibitor | pIC50 ([1]; no preincubation, assay as in Example 3): 2.81 | type of inhibition of TAFIa ([1]; preincubated 1 hour at 4° C.): non-competitive-type inhibitor

CC(C)Cc1ccc(C(C)C(=O)O)cc1 (stereo not drawn) [ibuprofen]
effect on TAFIa carboxypeptidase activity (residual TAFIa activity) [3]: little inhibitory effect

O=C(NCCNC(=O)c1cc(OCc2ccccc2)ccc1OCc1ccccc1)OCCNC(=O)c1ccccc1O [LT32]
effect on reaction rate (Vmax) of LOX/HRP with lysine [6]: Neither of the compounds had a significant effect | pIC50 [1]: 3.65 | type of inhibition of TAFIa ([1]; no preincubation): competitive inhibitor

CC(=O)Nc1ccc(O)cc1 [acetominophen]
effect on TAFIa carboxypeptidase activity (residual TAFIa activity) [3]: little inhibitory effect

O=C(O)c1ccccc1O [SA, salicylic acid]
effect on activation of TAFI to TAFIa by thrombin/thrombomodulin [2]: inhibit activation of TAFI to TAFIa | effect on activation of TAFI to TAFIa by thrombin/thrombomodulin ([2]; listed as salicylic acid): inhibit the activation of TAFI | TAFIa activity lost ([3]; 25 mM, room temperature, 1 hour (FIG. 3)): About 60% | effect on TAFIa carboxypeptidase activity (residual TAFIa activity) [3]: directly inhibited; also recorded: inhibited in a dose-dependent manner

O=C(O)CNC(=O)c1ccccc1O [SU, salicyluric acid (2-hydroxyhippuric acid)]
effect on activation of TAFI to TAFIa by thrombin/thrombomodulin [2]: inhibit activation of TAFI to TAFIa | effect on activation of TAFI to TAFIa by thrombin/thrombomodulin ([2]; listed as 2-hydroxybenzoic acid (salicyluric acid)): inhibit the activation of TAFI | rank of potency as TAFIa inhibitor ([3]; SU vs SA vs ASA, 1 hour at room temperature): most effective inhibitor | effect on TAFIa carboxypeptidase activity (residual TAFIa activity) [3]: directly inhibited; also recorded: inhibited in a dose-dependent manner
